Results: article PMC8155022 (Scientific Reports, 2021)

What was measured:
ERRγ = ERRγ (Homo sapiens, UniProt P62508); assay: biochemical TR-FRET assay; settings: agonist and antagonist mode; read-out: potency in agonist and antagonist mode
D1 (h) = molecular target: T1, D1 (h) (Homo sapiens, UniProt P21728); assay: Cerep panel; assay type: binding
T1 construct: purchased Cerep (receptors, ion channels, transporters); Eurofins Panlabs (kinases)
Method: (§1) A panel of 52 different receptors, ion channels and transporters was tested by Cerep, Inc. (Redmond, WA).

NK2 (h) = molecular target: T2, NK2 (h) (Homo sapiens, UniProt P21452); assay: Cerep panel; assay type: binding
T2 construct: purchased Cerep (receptors, ion channels, transporters); Eurofins Panlabs (kinases)
T2 sequence (P21452 1-398): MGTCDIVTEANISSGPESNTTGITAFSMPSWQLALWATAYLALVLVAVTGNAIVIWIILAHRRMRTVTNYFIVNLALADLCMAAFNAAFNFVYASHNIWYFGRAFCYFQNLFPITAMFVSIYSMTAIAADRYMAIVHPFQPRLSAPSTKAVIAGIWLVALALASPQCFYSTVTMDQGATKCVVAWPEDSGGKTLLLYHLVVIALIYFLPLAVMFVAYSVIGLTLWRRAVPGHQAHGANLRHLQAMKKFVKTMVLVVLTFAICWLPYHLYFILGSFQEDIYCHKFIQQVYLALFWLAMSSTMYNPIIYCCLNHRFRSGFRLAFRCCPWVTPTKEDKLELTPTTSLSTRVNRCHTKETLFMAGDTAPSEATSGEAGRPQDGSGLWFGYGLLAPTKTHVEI
Method: 28 GPCRs were evaluated through cAMP or calcium FLIPR assays[67]. A panel of 52 different receptors, ion channels and transporters was tested by Cerep, Inc. (Redmond, WA). Kinase selectivity was conducted by Eurofins Panlabs Inc (St Charles, MO).

NK3 (h) = molecular target: T3, NK3 (h) (Homo sapiens, UniProt P29371); assay: Cerep panel; assay type: binding
T3 construct: purchased Cerep (receptors, ion channels, transporters); Eurofins Panlabs (kinases)
Method: as §1

Cl- channel = assay: Cerep panel; assay type: binding
Method: as §1

5HT2C = 5HT2C (Homo sapiens, UniProt P28335); assay: GPCR panel, cAMP or calcium FLIPR assays; assay type: cell-based
Method: 28 GPCRs were evaluated through cAMP or calcium FLIPR assays[67].

IR(h) = molecular target: T4, IR(h) (Homo sapiens, UniProt P06213); assay: Kinase panel; assay type: biochemical
T4 construct: purchased Cerep (receptors, ion channels, transporters); Eurofins Panlabs (kinases)
Method: (§2) Kinase selectivity was conducted by Eurofins Panlabs Inc (St Charles, MO).

MAPK1(h) = molecular target: T5, MAPK1(h) (Homo sapiens, UniProt P27361); assay: Kinase panel; assay type: biochemical
T5 construct: purchased Cerep (receptors, ion channels, transporters); Eurofins Panlabs (kinases)
Method: as §2

MAPK2(h) = molecular target: T6, MAPK2(h) (Homo sapiens, UniProt P28482); assay: Kinase panel; assay type: biochemical
T6 construct: purchased Cerep (receptors, ion channels, transporters); Eurofins Panlabs (kinases)
Method: as §2

NK2 = NK2 (Homo sapiens, UniProt P21452); assay: follow-up functional study; assay type: cell-based
[1] = test system: CD4+ T cells under Treg polarizing conditions; assay: in vitro human Treg differentiation, FOXP3 gene expression; assay type: cell-based; settings: 6 days
From the text: Supplement Materials and Methods
In vitro human Treg differentiation
Human nTreg Suppressive Assay

[2] = modeled plasma exposure in the CIA model; assay type: in vivo, mouse

T4 sequence (P06213 28-1382): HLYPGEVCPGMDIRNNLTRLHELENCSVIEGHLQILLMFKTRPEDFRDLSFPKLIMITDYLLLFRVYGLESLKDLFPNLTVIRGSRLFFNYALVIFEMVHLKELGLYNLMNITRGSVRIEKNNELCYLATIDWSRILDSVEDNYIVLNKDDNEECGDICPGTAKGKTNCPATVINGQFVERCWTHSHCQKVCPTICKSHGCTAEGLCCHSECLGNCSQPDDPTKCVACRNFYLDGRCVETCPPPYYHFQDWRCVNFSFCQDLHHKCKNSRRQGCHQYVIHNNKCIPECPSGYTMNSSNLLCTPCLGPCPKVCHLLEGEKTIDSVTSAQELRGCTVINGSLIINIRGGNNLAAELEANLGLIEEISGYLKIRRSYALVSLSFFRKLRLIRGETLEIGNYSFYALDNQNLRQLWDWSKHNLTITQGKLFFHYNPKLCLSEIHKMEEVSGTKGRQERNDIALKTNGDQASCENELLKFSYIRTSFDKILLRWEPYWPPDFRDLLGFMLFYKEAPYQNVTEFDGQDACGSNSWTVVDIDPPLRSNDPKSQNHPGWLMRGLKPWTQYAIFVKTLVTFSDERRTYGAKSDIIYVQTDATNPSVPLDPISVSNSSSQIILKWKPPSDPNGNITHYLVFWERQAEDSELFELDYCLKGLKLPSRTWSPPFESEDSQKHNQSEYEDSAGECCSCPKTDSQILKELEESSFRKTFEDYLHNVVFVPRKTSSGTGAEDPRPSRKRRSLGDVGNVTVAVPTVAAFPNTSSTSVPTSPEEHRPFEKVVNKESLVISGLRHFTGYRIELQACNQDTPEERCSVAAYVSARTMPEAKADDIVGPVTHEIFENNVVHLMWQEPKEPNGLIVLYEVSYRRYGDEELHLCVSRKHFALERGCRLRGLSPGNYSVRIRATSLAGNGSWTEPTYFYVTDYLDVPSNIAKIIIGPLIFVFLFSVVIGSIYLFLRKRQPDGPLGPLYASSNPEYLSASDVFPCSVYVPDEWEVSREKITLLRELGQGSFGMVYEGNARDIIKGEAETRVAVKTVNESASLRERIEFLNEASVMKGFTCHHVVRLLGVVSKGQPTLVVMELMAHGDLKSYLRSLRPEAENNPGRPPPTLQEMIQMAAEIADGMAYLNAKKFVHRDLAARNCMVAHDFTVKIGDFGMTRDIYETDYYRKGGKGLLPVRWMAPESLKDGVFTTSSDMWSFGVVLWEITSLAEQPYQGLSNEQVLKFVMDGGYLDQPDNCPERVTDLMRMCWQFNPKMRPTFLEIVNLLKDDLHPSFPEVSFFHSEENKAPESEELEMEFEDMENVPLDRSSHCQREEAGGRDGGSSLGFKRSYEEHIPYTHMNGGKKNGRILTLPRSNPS
T6 sequence (P28482 whole entry): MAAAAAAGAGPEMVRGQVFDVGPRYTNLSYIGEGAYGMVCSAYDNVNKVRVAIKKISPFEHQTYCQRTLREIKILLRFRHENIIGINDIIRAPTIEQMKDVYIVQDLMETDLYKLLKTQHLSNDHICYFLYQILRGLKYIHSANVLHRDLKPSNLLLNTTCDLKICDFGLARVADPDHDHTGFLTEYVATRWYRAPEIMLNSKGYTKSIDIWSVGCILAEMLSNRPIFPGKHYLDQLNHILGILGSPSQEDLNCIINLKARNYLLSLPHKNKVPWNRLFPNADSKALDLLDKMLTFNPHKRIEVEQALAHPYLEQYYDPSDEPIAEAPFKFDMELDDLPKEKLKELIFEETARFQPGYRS
T5 sequence (P27361 whole entry): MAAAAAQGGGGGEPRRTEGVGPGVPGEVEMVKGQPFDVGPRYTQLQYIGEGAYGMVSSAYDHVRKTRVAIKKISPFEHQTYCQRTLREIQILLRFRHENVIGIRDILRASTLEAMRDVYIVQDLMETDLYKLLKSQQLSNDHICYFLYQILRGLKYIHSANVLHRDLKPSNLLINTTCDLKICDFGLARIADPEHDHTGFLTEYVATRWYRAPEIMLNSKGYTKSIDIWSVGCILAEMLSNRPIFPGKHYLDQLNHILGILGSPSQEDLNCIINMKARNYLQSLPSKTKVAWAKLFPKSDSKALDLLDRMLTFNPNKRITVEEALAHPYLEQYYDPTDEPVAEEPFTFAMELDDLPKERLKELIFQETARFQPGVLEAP
5HT2C, sequence (P28335 33-458, species assumed): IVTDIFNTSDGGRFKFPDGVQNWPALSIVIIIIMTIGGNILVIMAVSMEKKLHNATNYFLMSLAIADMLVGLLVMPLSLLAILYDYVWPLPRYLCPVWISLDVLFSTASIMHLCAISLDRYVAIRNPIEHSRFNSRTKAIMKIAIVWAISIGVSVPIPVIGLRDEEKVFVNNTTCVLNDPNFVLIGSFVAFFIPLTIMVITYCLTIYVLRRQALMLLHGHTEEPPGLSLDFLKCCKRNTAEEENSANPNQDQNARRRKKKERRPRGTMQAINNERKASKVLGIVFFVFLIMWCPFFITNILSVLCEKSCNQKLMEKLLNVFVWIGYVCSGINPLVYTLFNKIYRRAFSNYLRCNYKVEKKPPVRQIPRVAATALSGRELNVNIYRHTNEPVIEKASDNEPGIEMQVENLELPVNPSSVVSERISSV
T3 sequence (P29371 whole entry): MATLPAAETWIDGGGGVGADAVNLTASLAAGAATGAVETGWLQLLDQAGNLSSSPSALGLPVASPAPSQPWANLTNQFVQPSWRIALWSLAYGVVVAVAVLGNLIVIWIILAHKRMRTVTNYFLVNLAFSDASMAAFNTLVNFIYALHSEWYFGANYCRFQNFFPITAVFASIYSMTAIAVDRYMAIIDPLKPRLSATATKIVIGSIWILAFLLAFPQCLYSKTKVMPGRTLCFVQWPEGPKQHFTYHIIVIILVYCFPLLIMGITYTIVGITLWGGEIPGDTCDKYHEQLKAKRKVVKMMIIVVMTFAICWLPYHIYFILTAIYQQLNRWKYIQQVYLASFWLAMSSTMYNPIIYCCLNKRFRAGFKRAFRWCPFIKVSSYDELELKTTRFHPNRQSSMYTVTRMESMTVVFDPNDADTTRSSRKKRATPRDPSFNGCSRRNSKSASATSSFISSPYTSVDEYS
T1 sequence (P21728 whole entry): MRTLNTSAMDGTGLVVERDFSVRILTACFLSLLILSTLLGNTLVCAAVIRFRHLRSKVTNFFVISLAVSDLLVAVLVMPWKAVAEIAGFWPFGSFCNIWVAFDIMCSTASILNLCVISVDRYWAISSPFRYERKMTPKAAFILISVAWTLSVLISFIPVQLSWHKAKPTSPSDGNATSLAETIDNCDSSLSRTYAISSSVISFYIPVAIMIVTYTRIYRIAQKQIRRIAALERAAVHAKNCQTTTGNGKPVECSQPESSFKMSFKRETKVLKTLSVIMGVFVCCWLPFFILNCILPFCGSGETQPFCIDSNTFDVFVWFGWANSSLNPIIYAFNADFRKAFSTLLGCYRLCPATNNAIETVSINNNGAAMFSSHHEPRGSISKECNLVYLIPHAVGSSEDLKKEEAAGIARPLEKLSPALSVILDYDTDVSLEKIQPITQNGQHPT
ERRγ, sequence (P62508 whole entry): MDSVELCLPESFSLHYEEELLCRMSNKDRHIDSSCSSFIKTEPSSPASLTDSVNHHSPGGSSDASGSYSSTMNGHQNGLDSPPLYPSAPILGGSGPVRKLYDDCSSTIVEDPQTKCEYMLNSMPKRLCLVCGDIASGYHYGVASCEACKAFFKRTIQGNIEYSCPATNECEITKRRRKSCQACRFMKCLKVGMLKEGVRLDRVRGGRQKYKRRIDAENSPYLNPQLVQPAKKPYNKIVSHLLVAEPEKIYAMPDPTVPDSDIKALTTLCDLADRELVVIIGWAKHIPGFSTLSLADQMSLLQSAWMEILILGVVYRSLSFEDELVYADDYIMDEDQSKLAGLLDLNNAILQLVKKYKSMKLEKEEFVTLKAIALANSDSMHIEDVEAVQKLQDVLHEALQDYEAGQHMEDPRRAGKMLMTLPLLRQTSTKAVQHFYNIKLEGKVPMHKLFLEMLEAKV

**Q.** What does the source list for `CC1CCCN1C(=O)c1nc(C(=O)NCC(C)(C)O)sc1-c1ccc(C(O)(C(F)(F)F)C(F)(F)F)c(Cl)c1Cl` (stereo not shown) [JNJ-61803534]?
**A.** IC50 (ERRγ): > 10 µM; inhibition at 1 µM (D1 (h)): < 10%; inhibition at 10 µM (D1 (h)): < 10%; inhibition at 1 µM (NK2 (h); 1 µM): < 10%; % Inhibition at 10 µM (NK2 (h); 10 µM): 54.8%; inhibition at 10 µM (NK2 (h); 10 µM): > 50%; inhibition at 1 µM (NK3 (h)): < 10%; inhibition at 10 µM (NK3 (h)): < 10%; % Inhibition at 1 µM (Cl- channel; 1 µM): 10.5%; % Inhibition at 10 µM (Cl- channel; 10 µM): 86.4%; EC50 (5HT2C; agonist): > 10 µM; IC50 (5HT2C; antagonist): > 10 µM; activity at 1 µM (IR(h)): 92%; activity at 10 µM (IR(h)): 89%; activity at 1 µM (MAPK1(h)): 91%; activity at 10 µM (MAPK1(h)): 112%; activity at 1 µM (MAPK2(h)): 124%; activity at 10 µM (MAPK2(h)): 127%; IC50 (NK2; read-out: IC50 in follow up functional assays): > 30 µM; effect on NK2 in follow-up functional studies (NK2; up to 30 µM): no effect; FOXP3 expression levels versus DMSO-treated cells [1]: similar; Caverage ([2]; 3 mg/kg BID): 0.702 µM; Ctrough ([2]; 3 mg/kg BID): 0.074 µM; Caverage ([2]; 10 mg/kg BID): 2.032 µM; Ctrough ([2]; 10 mg/kg BID): 0.211 µM; Caverage ([2]; 30 mg/kg BID): 6.909 µM; Ctrough ([2]; 30 mg/kg BID): 0.716 µM; Caverage ([2]; 60 mg/kg QD): 6.909 µM; Ctrough ([2]; 60 mg/kg QD): 0.026 µM; Caverage ([2]; 100 mg/kg BID): 20.321 µM; Ctrough ([2]; 100 mg/kg BID): 2.106 µM
